Data published in publication PMC12414871, “Unraveling the functional dynamics of Caenorhabditis elegans stress‐responsive omega class GST‐44” (The Febs Journal, 2025).

Molecular target: T1, GST‐44 (Caenorhabditis elegans, UniProt O45352)
T1 construct: recombinant, E. coli BL21(DE3), vector pJC40 with removable N-terminal His tag, Ni-NTA purified
Assay: thioltransferase assay, substrate saturation curve and Lineweaver-Burk diagram
Format: biochemical
Conditions: co-substrate GSH (thioltransferase assay; reduction of spontaneously formed mixed disulfide)

T1 sequence (O45352 entry or part of it): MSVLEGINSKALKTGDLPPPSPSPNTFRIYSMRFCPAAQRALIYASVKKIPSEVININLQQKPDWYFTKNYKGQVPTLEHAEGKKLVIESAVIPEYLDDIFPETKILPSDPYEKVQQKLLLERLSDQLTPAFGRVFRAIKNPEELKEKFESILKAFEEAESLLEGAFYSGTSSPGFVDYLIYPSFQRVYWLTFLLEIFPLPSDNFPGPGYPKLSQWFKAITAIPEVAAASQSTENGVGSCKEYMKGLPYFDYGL

OCCSSCCO [2‐hydroxyethyl disulfide]
Km: 160 µM
